The text below walks through data of PMC11173529, “Structure–Activity Relationship Studies in a Series of Xanthine Inhibitors of SLACK Potassium Channels” (Molecules, 2024).

By inhibition is commonly meant how much of the control response was suppressed.

Type in all cases: cell-based
For one assay, the target named is T1, SLICK (Homo sapiens, UniProt Q6UVM3).
T1 construct: expressed in transfected cells; host or cells: HEK293
T1 sequence (Q6UVM3 1-1135): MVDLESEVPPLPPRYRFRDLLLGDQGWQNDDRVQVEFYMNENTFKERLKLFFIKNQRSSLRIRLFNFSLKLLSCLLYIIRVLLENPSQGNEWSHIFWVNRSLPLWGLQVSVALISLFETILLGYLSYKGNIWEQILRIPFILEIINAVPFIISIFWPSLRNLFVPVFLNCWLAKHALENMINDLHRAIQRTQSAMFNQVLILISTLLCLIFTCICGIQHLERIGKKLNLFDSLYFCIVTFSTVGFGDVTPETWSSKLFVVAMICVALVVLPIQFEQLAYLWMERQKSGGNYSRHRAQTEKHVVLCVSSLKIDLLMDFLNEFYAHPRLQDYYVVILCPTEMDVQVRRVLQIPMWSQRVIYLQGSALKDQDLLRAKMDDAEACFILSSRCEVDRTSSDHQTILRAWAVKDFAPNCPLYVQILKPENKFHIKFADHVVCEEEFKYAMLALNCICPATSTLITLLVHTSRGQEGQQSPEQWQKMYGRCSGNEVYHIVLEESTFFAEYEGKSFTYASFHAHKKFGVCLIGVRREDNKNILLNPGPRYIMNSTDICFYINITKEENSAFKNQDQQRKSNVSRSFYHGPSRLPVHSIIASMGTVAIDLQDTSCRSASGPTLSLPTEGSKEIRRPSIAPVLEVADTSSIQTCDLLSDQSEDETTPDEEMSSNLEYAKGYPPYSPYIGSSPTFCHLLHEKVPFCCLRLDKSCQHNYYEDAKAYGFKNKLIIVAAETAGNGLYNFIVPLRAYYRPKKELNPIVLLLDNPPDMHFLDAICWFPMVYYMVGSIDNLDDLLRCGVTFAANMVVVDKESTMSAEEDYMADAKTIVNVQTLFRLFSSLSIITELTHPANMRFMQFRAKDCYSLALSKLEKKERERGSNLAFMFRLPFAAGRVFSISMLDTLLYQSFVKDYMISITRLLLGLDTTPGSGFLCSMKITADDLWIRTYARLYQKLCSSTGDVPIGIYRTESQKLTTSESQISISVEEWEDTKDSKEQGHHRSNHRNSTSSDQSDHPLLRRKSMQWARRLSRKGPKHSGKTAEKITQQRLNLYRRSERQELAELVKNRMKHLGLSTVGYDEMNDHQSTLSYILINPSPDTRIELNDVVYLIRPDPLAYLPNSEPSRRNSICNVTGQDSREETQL
The experiment in a line: Tl+-flux selectivity panel in HEK-293 cells: SLICK. The settings on record: HEK293, 10 µM test compound, relative to control SKF96365, read-out: Percent Inhibition ± SEM. Here is the method:
(§1) With a handful of analogs that offered improved SLACK potency relative to hit compound 8, we next proceeded to investigate the ancillary pharmacology of such compounds, both with respect to other Slo family members as well as versus a spectrum of diverse ion channels (Table 5). Thus, we screened four compounds (32, 48, 70, and 71) at 10 µM in our in-house selectivity panel of Tl^+-flux assays in HEK-293 cells stably expressing the target of interest. […] Some valuable SAR was noted as well. […] Reduction of inhibition at Maxi-K α1/β4 also followed. This SAR will be important to bear in mind for continued optimization within this series. […] Of particular note is the lack of significant hERG activity in this series, as activity versus that counter-target has been an issue with other SLACK inhibitors.
(§2) Stably transfected monoclonal HEK293 cell lines expressing Slick, Maxi-K α1/β3, Maxi-K α1/β4, CaV3.2, GIRK 1/2, KV2.1, KV7.2, NaV1.7, and TASK-1 were generated as previously described. Stably transfected monoclonal HEK293 cell lines expressing hERG were generated as previously described. CHO-K1 cells expressing human Slack and disease-associated human Slack mutations, G288S and A934T, were generated by transfecting a PiggyBac TRE mammalian expression vector (VectorBuilder, Chicago, IL, USA) containing KCNT1. FuGENE 6 (Promega, Madison, WI, USA) transfection reagent and protocol, together with Opti-MEM (Thermo Fisher Scientific, Walkham, MA, USA), were utilized.
(§3) The Tl^+ flux assays were conducted as previously described with modifications optimized for individual cell lines as described below. Following removal of cell culture media, cells were loaded with Tl^+-sensitive dye loading solution containing Thallos-AM (ION Biosciences, San Marcos, TX, USA), 1.25 mM Probenecid, and 0.3% Pluronic F-127 (MilliporeSigma, Burlington, MA, USA), in assay buffer comprised of Hanks Balanced Salt Solution (HBSS) (Thermo Fisher Scientific, Waltham, MA, USA) and 20 mM HEPES (Corning, Corning, NY, USA) at room temperature for one-hour. Dye loading solution was replaced with 20 μL/well of assay buffer prior to assaying. Cell plates were then loaded onto a Panoptic kinetic imaging plate reader (WaveFront Biosciences, Franklin, TN, USA). Data were acquired at 5 Hz (excitation 482 ± 35 nm, emission 536 ± 40 nm) for 10 s, at which time 20 μL/well of test compounds in assay buffer at 2-fold above the desired final concentration was added and allowed to incubate for 120 s. Next, 10 μL/well of Tl^+ stimulus buffer (129 mM Na gluconate, 1.2 mM CaSO4, 1 MgSO4, 1 mM Na2HPO4, 4.17 mM NaHCO3, 5.56 mM glucose, 2.5 mM Tl2SO4, and 10 mM HEPES pH 7.3) was added. Imaging was concluded after an additional 120 s.

A further assay has as its target T2, Maxi-K α1/β3 (Homo sapiens, UniProt Q12791).
T2 construct: expressed in transfected cells; host or cells: HEK293
Nature of the assay: Tl+-flux selectivity panel in HEK-293 cells: Maxi-K α1/β3. Conditions: HEK293, 10 µM test compound, relative to control paxilline, read-out: Percent Inhibition ± SEM. Here is the method:
as §1, §2, §3

Another assay has as its target T3, KV7.2 (Homo sapiens, UniProt O43526).
T3 construct: expressed in transfected cells; host or cells: HEK293
Nature of the assay: Tl+-flux selectivity panel in HEK-293 cells: KV7.2. The settings on record: HEK293, 10 µM test compound, relative to control XE991, read-out: Percent Inhibition ± SEM. The procedure:
as §1, §2, §3

T2 sequence (Q12791 whole entry): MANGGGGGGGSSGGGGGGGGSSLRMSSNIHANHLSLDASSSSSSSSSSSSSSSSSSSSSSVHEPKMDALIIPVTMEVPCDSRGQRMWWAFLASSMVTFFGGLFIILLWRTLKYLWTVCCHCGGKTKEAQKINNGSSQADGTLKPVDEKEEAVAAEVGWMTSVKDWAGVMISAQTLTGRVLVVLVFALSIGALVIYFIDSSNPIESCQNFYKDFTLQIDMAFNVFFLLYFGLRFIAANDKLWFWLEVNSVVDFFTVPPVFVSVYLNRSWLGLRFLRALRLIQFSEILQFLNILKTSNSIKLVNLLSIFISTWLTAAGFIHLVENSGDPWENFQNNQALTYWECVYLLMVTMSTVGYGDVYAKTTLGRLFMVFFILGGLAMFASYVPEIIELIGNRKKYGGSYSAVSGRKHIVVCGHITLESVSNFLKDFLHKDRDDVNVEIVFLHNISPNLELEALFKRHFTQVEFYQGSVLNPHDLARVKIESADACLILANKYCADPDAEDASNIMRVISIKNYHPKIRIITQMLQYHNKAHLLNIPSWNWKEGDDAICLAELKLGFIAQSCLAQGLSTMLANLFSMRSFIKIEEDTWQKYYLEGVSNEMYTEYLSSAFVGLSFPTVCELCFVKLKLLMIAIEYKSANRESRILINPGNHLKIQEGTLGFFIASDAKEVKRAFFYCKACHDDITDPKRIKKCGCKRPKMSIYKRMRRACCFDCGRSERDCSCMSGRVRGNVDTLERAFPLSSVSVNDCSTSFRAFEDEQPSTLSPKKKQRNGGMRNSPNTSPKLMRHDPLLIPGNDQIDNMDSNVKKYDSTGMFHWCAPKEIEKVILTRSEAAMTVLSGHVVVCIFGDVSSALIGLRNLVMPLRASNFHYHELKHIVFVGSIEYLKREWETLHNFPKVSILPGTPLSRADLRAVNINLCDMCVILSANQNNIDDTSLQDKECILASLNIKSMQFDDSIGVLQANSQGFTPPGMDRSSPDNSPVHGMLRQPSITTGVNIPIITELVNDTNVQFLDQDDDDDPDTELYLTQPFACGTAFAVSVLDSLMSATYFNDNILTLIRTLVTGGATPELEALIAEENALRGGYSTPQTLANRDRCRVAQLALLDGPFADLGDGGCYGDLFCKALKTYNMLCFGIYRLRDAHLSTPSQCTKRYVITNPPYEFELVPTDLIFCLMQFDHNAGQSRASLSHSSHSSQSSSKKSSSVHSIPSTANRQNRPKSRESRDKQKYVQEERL
T2 sequence (Q9NPA1 whole entry partner): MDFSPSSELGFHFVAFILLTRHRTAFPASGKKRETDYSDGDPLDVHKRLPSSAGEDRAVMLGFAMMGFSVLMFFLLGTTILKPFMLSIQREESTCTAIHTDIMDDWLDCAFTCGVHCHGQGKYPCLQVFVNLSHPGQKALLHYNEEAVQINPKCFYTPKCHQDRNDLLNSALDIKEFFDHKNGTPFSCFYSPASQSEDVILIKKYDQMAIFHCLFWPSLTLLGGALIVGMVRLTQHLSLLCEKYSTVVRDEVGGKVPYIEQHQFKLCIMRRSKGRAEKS

For `COc1cccc(Cn2c(=O)c3c(nc(N(C)Cc4ccccc4)n3C)n(C)c2=O)c1` [Analog 32], the figures for the inhibition at 10 µM at SLICK, on Maxi-K α1/β3 and at KV7.2 were 28 ± 5.5%, 79 ± 1.4% and 16 ± 2.2%, respectively.
In the case of `CN(Cc1cccc(F)c1)c1nc2c(c(=O)n(Cc3ccccc3)c(=O)n2C)n1C` [Analog 48], the inhibition at 10 µM came to 21 ± 3.1% on SLICK, 63 ± 1.2% at Maxi-K α1/β3 and 15 ± 2.3% on KV7.2.
For `CCCCN(Cc1ccccc1)c1nc2c(c(=O)n(Cc3ccccc3)c(=O)n2C)n1C` [Analog 70] the same measures were 18 ± 4.2%, 34 ± 2.9% and 19 ± 0.2%.
For `Cn1c(N(Cc2ccccc2)CC2CC2)nc2c1c(=O)n(Cc1ccccc1)c(=O)n2C` [Analog 71] the same measures were 17 ± 2.5%, 17 ± 5.2% and 14 ± 1.6%.
